Consider ten compounds from patent publication US5972923A, “Methods and compositions to enhance the cytoprotective effects of polycyclic phenolic compounds through the synergistic interaction with anti-oxidants” (priority 1998, dated 1999).

Like-named read-outs stand apart in the source and are kept apart here.

For series [1], the system named is SK-N-SH cells. Description: Live cell number of SK-N-SH cells with βAP 25-35 induced toxicity (trypan blue exclusion), 17β-estradiol and anti-oxidants. Conditions: for interaction with estrogen: combination with estrogen.
Procedure: The assay utilized the human neuroblastoma cells SK-N-SH.
Materials: Lyophilized βAP 25-35 (1 mg) (Bachem, Torrance, Calif.) was initially dissolved in 200 μl ddH20 and with the addition of 800 μl of PBS, rapid aggregation was observed. […] Lipoic acid (thiotic acid), taurine (2-aminoethanoic acid), and ascorbic acid were initially dissolved in cell culture media and used at the concentrations indicated. Unless otherwise noted, materials were obtained from Sigma Chemical Corp SK-N-SH Neuroblastoma Cell Culture: SK-N-SH neuroblastoma cells were obtained from American Type Tissue Collection (Rockville, Md.). Cell cultures were grown to confluency in RPMI-1640 media (Fisher Scientific, Inc.) supplemented with 10% charcoal/dextran-treated fetal bovine serum (FBS), (Hyclone®), Logan, Utah), 100 U/ml penicillin G and 100 mg/ml streptomycin (Sigma Chemical Corp.) in monolayers in Corning 150 cm^2 flasks (Fisher Scientific, Inc.) at 37° C. under 5% CO2, 95% air. Media was changed three times weekly.
(a) SK-N-SH cells used in the following experiments were in passes 4 to 12. The growth media was initially decanted and the cells were rinsed with 0.02% EDTA for 30 min at 37° C. Cells were then counted on a Neubauer hemacytometer (Fisher Scientific) and resuspended in appropriate media. Studies were initiated by plating 1×10^6 cells per well in 24 well plates, allowing attachment in regular media and then decanting that media and replacing with the appropriate treatment after 4 h.
SK-N-SH cell viability was determined utilizing the trypan blue exclusion method (Black and Berenbaum, 1964; Tennant, 1964). After 72 h of incubation, treatment media was decanted and cells were lifted by incubating with 0.2 ml 0.02% EDTA for 30 min at 37° C. Cells were suspended by repeated pipetting. One-hundred μl aliquots from each cell suspension were incubated with 100 μl aliquots of 0.4 % trypan blue stain for 5 min at room temperature. All suspensions were counted on a Neubauer hemacytometer within 10 min of addition of trypan blue stain. Two independent counts of live and dead cells were made for each aliquot.
Statistics: The significant treatment effects on cell viability were determined using ANOVA followed by Scheffe's post hoc test, with significance determined at p<0.05. For dose-response evaluations, EC50 values were calculated by randomly assigning cell counts at the indicated doses to generate 3-5 lines per treatment and determining the average value for those lines. Mann-Whitney Rank Sum non-parametric analysis were used on EC50 values because the variances for the standard deviation were not equivalent.
Series [2] has as its system HT-22 cells. Description: Effects of estratrienes with and without glutathione on neurotoxicity of βAP 25-35 in HT-22 cells. The settings on record: for EC50: Mus musculus; for neuroprotection: concurrent treatment with βAP 25-35; for decrease in cell viability: β-AP (25-35).
Procedure: Experiments were initiated by plating cells in Nunc^X 24 well plate cells were allowed to attach for 4 h before treatment. […] After 48 h cells were suspended and viability determined using the trypan blue dye exclusion method (Tennant 1964). Steroids and βAP were prepared as previously described (Green et al. 1996). ED50 values were analyzed by a two way Analysis of Variance. Differences among effects were determined by a Scheffe's post hoc analysis with a p<0.05 considered significant. […] Data are normalized to the βAP free control group as 100% protection and the βAP alone group as 0% protection.
Series [3] deals with rat primary cortical neurons. Description: Neuroprotection against βAP 25-35 in rat primary cortical neurons (LIVE/DEAD kit). Conditions: for EC50: Rattus norvegicus, Primary cortical neuron. How it is done:
Primary Rat Cortical Culture: Primary neuronal cultures were prepared according to the method used by Chandler et al. Alcoholism: Clinical and Experimental Research, 17 (1993) 54-60.
Once treatments were added, primary cultures were incubated for an additional 24 h and viability determined using the LIVE/DEAD® viability/cytotoxicity kit (Molecular Probes, Eugene, Oreg.) according to manufacturer's instructions. Live cells are distinguished by the presence of intracellular esterase activity which cleaves the calcein AM dye, producing a bright green fluorescence when excited. Ethidium homodimer enters cells with damaged membranes, and upon binding to nucleic acids, produces a red fluorescence. Both dyes are excited at 485 nm, and cultures plates were viewed with a fluorescent microscope (Nikon Diaphot-300). Three random fields were photographed, and the average number of live cells per field was determined by counting the number of bright green cells.

For series [4], the system named is HT-22 cells. Description: Effects of 17β-estradiol and its BSA conjugate on βAP 25-35 induced toxicity on HT-22 cells (trypan blue). Conditions: for Live Cell Number ± SEM: 3.25 μM GSH, 48 h.
Procedure: Experiments were initiated by plating cells in Nunc^X 24 well plate and cells were allowed to attach for 4 h before treatment.
Series [5] deals with SK-N-SH cells. Description: Dose response of neuroprotection by GSH or 17β-estradiol against βAP 25-35 in SK-N-SH cells (trypan blue). It is filed as cell-based, human. Conditions: for EC50: Homo sapiens, SK-N-SH. How it is done: Media was changed three times weekly.
Cells were suspended by repeated pipetting.
After 72 hours incubation, live cells were determined with Trypan Blue exclusion.
After 72 hours incubation, the cells were stained with Trypan Blue. […] (FIG. 3).

Setting [6] is: βAP 25-35 (20 μM) + TRT (anti-oxidant), 72 h.
[7] abbreviates: βAP 25-35 (20 μM) + βE2 + TRT (anti-oxidant), 72 h.
Where [8] appears, read: HT-22, read-out: ED50, absence of GSH.
[9] abbreviates: HT-22, read-out: ED50, presence of GSH.

In the case of `O=C1O[C@H]([C@@H](O)CO)C(O)=C1O` [Ascorbic Acid, ascorbic acid], the interaction with estrogen result with SK-N-SH cells [1] is reported as “no apparent interactions”. In addition, the figures for the live cell number in the series on SK-N-SH cells [1] (setting [6]) and with SK-N-SH cells [1] (setting [7]) were 124 ± 6 and 188 ± 11, respectively.

As to `NCCS(=O)(=O)O` [Taurine, 2-aminoethanoic acid], in the series on SK-N-SH cells [1], the interaction with estrogen result is “no apparent interactions”. The live cell number in the series on SK-N-SH cells [1] (setting [6]) is 402 ± 9; with SK-N-SH cells [1] (setting [7]) it was 439 ± 11.

On to `C[C@@]12CCC[C@H]1[C@@H]1CCc3cc(O)ccc3[C@H]1CC2` [E-3-ol, estratriene-3-ol], for which the figures for the EC50 in the series with HT-22 cells [2] (setting [8]) and in the series on HT-22 cells [2] (setting [9]) were 3680 nM and 14 nM, respectively.

In the case of `C[C@]12CC[C@@H]3c4ccc(O)cc4CC[C@H]3[C@@H]1CC[C@H]2O` [α-estradiol, 17 α-estradiol], the EC50 worked out at 1010 nM in the series on HT-22 cells [2] (setting [8]) and 6 nM with HT-22 cells [2] (setting [9]). Further, in the series on HT-22 cells [2], the neuroprotection result is “dose-dependent neuroprotection”. Further, in the series with HT-22 cells [2] (with GSH, FIG. 5), the synergistic effect result is listed as “marked synergistic effect”.

On to “βAP 25-35: neurotoxic β-amyloid protein, a peptide of 10 amino acids (amino acids 25-35) (GSNKGAIIGLM; Amyloid-beta protein 42; UniProt P05067 696-706, looked up, fragment)”, for which, in series [3] (βAP 25-35 (10 μM), absence of GSH, 24 h), the “reduction in the average number of viable cells per field” value is given as 39%. Further, the cells killed in the series on HT-22 cells [2] (exposure to βAP 25-35) is given as 50-60%. Moreover, the “decrease in cell viability” value in the series on HT-22 cells [2] (absence of GSH) was found to be 54±4%. For the same compound, the “Live Cell Number ± SEM” value with HT-22 cells [4] (βAP (20 μM) alone) was 189 ± 11 ×10^3 cells. Besides, the live cell number in the series on SK-N-SH cells [1] (βAP alone, Ascorbic Acid column) amounted to 118 ± 9; in the series on SK-N-SH cells [1] (βAP alone, GSH) it was 331 ± 17; in the series on SK-N-SH cells [1] (βAP alone, GSSG column), 331 ± 17; with SK-N-SH cells [1] (βAP alone, Lipoic Acid column) it was 408 ± 10; in the series on SK-N-SH cells [1] (βAP alone, Taurine column) it was 408 ± 10; in the series on SK-N-SH cells [1] (βAP alone, Tocopherol column), 366 ± 24.

Take `C[C@]12CC[C@@H]3c4ccc(O)cc4CC[C@H]3[C@@H]1CC[C@@H]2O` [17β-estradiol]: the neuroprotection result is given as “Neuroprotection was observed” in the series on SK-N-SH cells [5] (200 nM 17β-estradiol, absence of glutathione) and “dose-dependent neuroprotection” in the series on HT-22 cells [2]. Further, the EC50 in the series with SK-N-SH cells [5] (72 h, read-out: ED50 of 17β-estradiol, Aβ 25-35 (20 μM), absence of glutathione, 72 h) came out at 100 nM; with SK-N-SH cells [5] (72 h, read-out: ED50 of 17β-estradiol, Aβ 25-35 (20 μM), presence of glutathione (3.25 μM), 72 h) it was 0.02 nM; with SK-N-SH cells [5] (read-out: EC50 (17β-estradiol dose response, FIG. 3), βAP 25-35 (20 μM), without GSH) it was 126 ± 87.8 nM; in series [3] (absence of GSH), 68.1 ± 79 nM; in series [3] (presence of GSH) it was 4.3 ± 5.9 nM. In addition, the live cell number in the series with SK-N-SH cells [1] (βAP + βE2, Ascorbic Acid column) is 144 ± 9; in the series with SK-N-SH cells [1] (βAP + βE2, GSH column) it was 357 ± 19; in the series with SK-N-SH cells [1] (βAP + βE2, GSSG column), 357 ± 19.

For the compound `O=C(O)CCCCC1CCSS1` (stereo not drawn) [Lipoic Acid, Lipoic acid], the interaction with estrogen entry in the series with SK-N-SH cells [1] was “no apparent interactions”. Also, the live cell number in the series with SK-N-SH cells [1] (setting [6]) is given as 406 ± 7; with SK-N-SH cells [1] (setting [7]), 416 ± 10.

For `CC(=O)Oc1c(C)c(C)c2c(c1C)CCC(C)(CCCC(C)CCCC(C)CCCC(C)C)O2` (stereo not drawn) [Tocopherol, α-tocopherol acetate], the interaction with estrogen result in the series on SK-N-SH cells [1] was “no apparent interactions”. For the same compound, the live cell number in the series with SK-N-SH cells [1] (setting [6]) stood at 448 ± 12; in the series with SK-N-SH cells [1] (setting [7]), 456 ± 14.

Consider `N[C@@H](CCC(=O)N[C@@H](CS)C(=O)NCC(=O)O)C(=O)O` [GSH, glutathione], for which the “protection from β-AP toxicity” value in the series with SK-N-SH cells [5] (GSH 325 μM) is recorded as “significant protection”. Further, the EC50 worked out at 32500 nM in the series with SK-N-SH cells [5] (72 h, read-out: ED50 of glutathione, βAP 25-35 (20 μM), absence of 17β-estradiol, 72 h); 325 nM in the series with SK-N-SH cells [5] (72 h, read-out: ED50 of glutathione, βAP 25-35 (20 μM), presence of 17β-estradiol (2 nM), 72 h); 82500 ± 60400 nM with SK-N-SH cells [5] (read-out: EC50 (GSH dose response, FIG. 2), βAP 25-35 (20 μM), without 17β-estradiol); 41 ± 25 nM in the series with SK-N-SH cells [5] (read-out: EC50 (GSH dose response, FIG. 2), βAP 25-35 + 17β-estradiol (2 nM)). In the series on SK-N-SH cells [5] (glutathione 3.25 μM, absence of 17β-estradiol), the neuroprotective effect result is “little neuroprotective effect”. For the same compound, the “fold greater neuroprotectivity than with glutathione alone” value in the series on SK-N-SH cells [5] (with 17β-estradiol (2 nM)) was 1000 fold. Besides, the “effect on β-AP (25-35) induced toxicity” value in the series on HT-22 cells [2] (dose of GSH used in these studies, by itself) is listed as “no effect”. Besides, in the series with HT-22 cells [2] (presence of 3.25 pM GSH (so in the source)), the “decrease in cell viability” value is given as 55±3%. The live cell number in the series with SK-N-SH cells [1] (setting [6]) was found to be 369 ± 7; in the series on SK-N-SH cells [1] (setting [7]), 534 ± 16.

For “17β-estradiol-6-(carboxymethyl) oxime: BSA [β17-E2:BSA]”, the “ability to protect HT22 cells from βAP (25-35) toxicity” value in the series with HT-22 cells [4] (BSA conjugate containing 20 μM 17β-estradiol, presence of GSH) is “abolished the ability of the steroid to protect HT22 cells”. Moreover, the “Live Cell Number ± SEM” value in the series on HT-22 cells [4] (βAP (20 μM) + 20 μM β17-E2:BSA) is 216 ± 17 ×10^3 cells.
